In one data set the test system is Akt. The data set is described as follows: Akt activity (phospho-Akt) by Western blot in CaCo-2 cells. The format is cell-based, human. The procedure: CaCo-2, the carcinoma cell line of human colon cancer, was purchased from American Type Culture Collection (ATCC), and cultured at 37° C. in the presence of 5% CO2 using a DMEM medium containing 10% FCS, 1% NEAA, and 1% P/S (100 units/ml penicillin and 100 μg/ml streptomycin).
6×10^5 CaCo-2 cells were inoculated per dish using 6 cm dishes (NUNC), washed twice with phosphate buffered saline (PBS) (-), and then cultured for 24 hours in a serum-free DMEM medium containing 1% NEAA. Subsequently, at a final concentration of 100 μM, homoserine lactone hydrochloride, N-butyryl-L-homoserine lactone, N-(3-oxohexanoyl)-L-homoserine lactone and N-(3-oxododecanoyl)-L-homoserine lactone were each added, and then each solution was allowed to react for 10 minutes. In addition, purified acylated homoserine lactone that was used herein had been dissolved in DMSO in a concentration 400 times higher than the target final concentration, and then subjected to filter sterilization (φ 0.22 μm). DMSO at a final concentration of 0.25% was used as a control. In addition, α-tubulin was used as an internal standard.
After reaction, the product was washed twice with cold PBS (-), and then frozen at −80° C. The cells were thawed on ice, 200 μl of a lysis buffer (50 mM HEPES, pH7.5, 50 mM NaCl, 1 mM EDTA, 1.5 mM MgCl2, 1% Triton X-100, 10% glycerine, 10 mM sodium pyrophosphate, 1 mM Na3VO4, 100 mM NaF, 1 mM PMSF, 10 μg/ml aprotinin and 10 μg/ml leupeptin) was added, and then the cells were scraped off using a scraper. The cells were allowed to stand on ice for 20 minutes, and then centrifuged at 14,000 rpm at 4° C. for 15 minutes, thereby collecting the supernatant. Concentration of the collected protein was measured, and protein equivalent to 50 μg was subjected to SDS-PAGE. After electrophoresis, the product was blotted on a PVDF membrane. When phospho-Akt was measured, blocking was carried out with 5% skim milk/Tris-buffered saline containing 0.1% Tween 20 (TBS-T), and the anti-phospho-Akt ([…]) antibody and the HRP-labeled anti-rabbit IgG antibody were used as a primary antibody and a secondary antibody, respectively. For α-tubulin used as an internal standard, blocking was carried out with 5% bovine serum albumin (BSA)/TBS-T, and the anti-α-tubulin (Ab-1) and the HRP-labeled anti-mouse IgG antibody were used as a primary antibody and a secondary antibody, respectively. For band detection, Renaissance™ Western Blot Chemiluminescence […] Reagent Plus (NEN) or Western Blotting Luminol Reagent (SANTA CRUZ BIOTECHNOLOGY) was used. […] In addition in the figure that is described below, HSL means homoserine lactone hydrochloride, C4-HSL means N-butyryl-L-homoserine lactone, 3-oxo-C6-HSL means N-(3-oxohexanoyl)-L-homoserine lactone, and 3-oxo-C12-HSL means N-(3-oxododecanoyl)-L-homoserine lactone.
After cell culture, N-(3-oxododecanoyl)-L-homoserine lactones with final concentrations of 0 μM (0.25% DMSO), 1 μM, 10 μM, 30 μM and 100 μM were each added. Akt activity was analyzed by Western blot in a manner similar to that used in (1), except for carrying out reaction for 10 minutes (FIG. 2).
After cell culture, N-(3-oxododecanoyl)-L-homoserine lactones with final concentrations of 30 μM and 100 μM were each added. For each case, Akt activity was measured by Western blot in a manner similar to that in (1), except for carrying out stimulation with acylated homoserine lactone in a short time course of 0, 5, 10, 30 and 60 minutes (FIG. 4), and in a long time course of 0, 10 minutes, 60 minutes, 2 hours, 4 hours, 6 hours, 8 hours and 10 hours (FIG. 5). In the case of stimulation at 30 μM, the inhibition of Akt activity peaked at 5 minutes, and lasted until 60 minutes after stimulation, and then returned to the base level within 2 hours. On the other hand, in the case of stimulation at […], the inhibition of Akt activity peaked at 5 minutes and lasted until 6 hours after stimulation. […]
In general terms: Immunoblotting shows a protein as a band on a membrane.

In data set [1] the test system is CaCo-2 cells. The data set is described as follows: Chromatin condensation and determination of apoptosis by Hoechst33342 staining. To be noted: 12 hours of culture. The class given is cell-based, human. The procedure: 2×10^4 CaCo-2 cells were inoculated on an 8-well culture slide (Collagen I Cellware BioCoat, Becton Dickinson), washed twice with PBS (-), and then cultured in a serum-free DMEM medium containing 1% NEAA for 24 hours. 3-oxododecanoyl homoserine lactone was added at each concentration (1 to 100 μM). After 12 hours of culture, the cells were fixed by 4% paraformaldehyde-3% sucrose/PBS, chromatin staining was carried out using Hoechst 33342 fluorescent dye, and then the cells were observed under a fluorescence microscope. With a magnification of ×400, 5 visual fields were selected at random. Apoptotic cells and normal cells were counted and the proportion of apoptotic cells was calculated. These steps were denoted as n=1, and conducted 3 times or more.

The test system of data set [2] is CaCo-2 cells. The data set is described as follows: Effects of kinase inhibitors on N-(3-oxododecanoyl)-L-homoserine lactone-dependent apoptosis, viability by Trypan blue staining. The format is cell-based, human. To be noted: 30 μM alone, 12 hours, control 96%. As to the method:
2×10^5 CaCo-2 cells were inoculated per 3.5 cm dish, cultured for 12 hours in the presence of 10% serum, washed twice with PBS (-), and then synchronously cultured in a serum-free medium for 24 hours. Pretreatment with various inhibitors (50 μM PD98059 and 20 μM SB203580) or DMSO was carried out for 30 minutes. Then 30 μM N-(3-oxododecanoyl)-L-homoserine lactone or DMSO was added, the cells were cultured for 12 hours, and then viability was measured by Trypan blue staining.

Another data set deals with IL-8. To be noted: human alveolar cells; cited from earlier work.
For another data set, the system named is IL-12. To be noted: mouse macrophage culture system; cited from earlier work.

A value given as a limit tells only on which side of the number the result lay.

Turning to `CCCCCCCCCC(=O)CC(=O)N[C@H]1CCOC1=O` [N-(3-oxododecanoyl)-L-homoserine lactone], the “Akt activity, % of that where no stimulation was provided” value in the data set on Akt (10 μM, 10 minutes) is reported as 79%; in the data set with Akt (30 μM, 10 minutes), 31%; with Akt (100 μM, 10 minutes), 14%. Besides, the “level of phosphorylated Akt” value with Akt (100 μM, 10 minutes) is “significantly decreased”. Further, the “concentration at which levels of phosphorylated Akt significantly decreased” value in the data set on Akt (10 minutes) was not below 10 µM. Besides, the “time at which inhibition of Akt activity peaked” value in the data set on Akt (stimulation at 10 μM), in the data set on Akt (stimulation at 30 μM) and in the data set with Akt (stimulation at 100 μM) was 5 min in each case. The “inhibition of Akt activity lasted until (after stimulation)” value in the data set on Akt (stimulation at 30 μM) is 60 min; in the data set with Akt (stimulation at 100 μM), 360 min. Also, the “time for Akt activity to return to the base level” value in the data set with Akt (stimulation at 30 μM) was not above 2 h. Besides, the “cell morphology by Hoechst 33342 staining” value in the data set on CaCo-2 cells [1] (1 μM) is on record as “only normal cells were observed”. Moreover, the entries for the “proportion of apoptotic cells to the total cell count” value in the data set with CaCo-2 cells [1] (10 μM), with CaCo-2 cells [1] (30 μM) and in the data set with CaCo-2 cells [1] (100 μM) were 15%, 39% and 50%, respectively. Besides, the “concentration at which apoptotic cells exhibiting chromatin condensation were observed” value in the data set with CaCo-2 cells [1] was not below 10 µM. Besides, the viability (usually a per cent measure of how many cells are alive, often set against a control) in the data set with CaCo-2 cells [2] stood at 49%. Further, the IL-8 production result with IL-8 is recorded as “stimulates”. The IL-12 production result in the data set on IL-12 is “promotes”.

These data come from patent US7537906B2, “Apoptosis inducer and method of screening for a substance inhibiting acylated homoserine lactone” (priority 2003, dated 2009).
